Experimental findings from patent publication US12377069B2, “Compounds, compositions, methods of using, and methods for preparing compounds” (UNIVERSITY OF LOUISVILLE RESEARCH FOUNDATION, INC., priority 2018, dated 2025) are described below.

For one test, the system named is C57BL/6N mice. Nature of the test: Chronic ALD mouse model. The format is in vivo. The note with it: 20 mg/kg orally every other day, 4 weeks. As for the experimental part:
FIG. 18: UAS03 mitigates chronic ALD. (A) C57BL/6 mice (10 wk old age) were used in chronic ALD models and analyzed after 4 weeks as described. Pair fed (n=5/group) and EtOH fed (n=10/group) mice were treated with Veh (0.25% CMC) and UAS03 (20 mg/kg) alternate day for 4 weeks. (B) Gross images of colons (C) colon lengths (D) In vivo permeability using FITC-Dextran was measured. (E) Serum ALT, AST, endotoxin, IL-6, TNF-α were measured using ELISA methods. (F) H&E sections (20×) of liver are shown. Scale bar is 100 μm. Fat droplets (white) are visible in EtOH group. (G) The levels of triglycerides (TGs), IL-6, TNF-α and myeloperoxidase (MPO) were measured in liver tissues. (H) Immunoblot of Ocln expression in ileum tissues (n=3) from mice fed with EtOH treated with Veh or UAS03. Error bars, ±SEM. Statistics were performed using 2way ANOVA multiple comparisons. * p<0.05, ** p<0.01, *** p<0.001.
Male C57BL/6N (10 week age old) were purchased from Jackson Laboratory and were acclimatized with pair fed liquid diet (Lieber DeCarli) for 1 week. After acclimatization, animals were fed with pair fed (n=5 mice/group) and alcohol diet (n=10 mice/group). Briefly, mice were fed with diet containing 17% of energy as protein, 40% as corn oil, 7.5% as carbohydrate, and 35.5% as either alcohol (5% v/w, alcohol-fed, AF) or isocaloric maltose dextrin (pair-fed, PF). Before mice went on to 5% alcohol diet, alcohol concentration was ramped from 1.6% (3 days) to 3.6% (3 days) and finally 5% for next 4 weeks. UAS03 group animals received UAS03 orally (20 mg/kg/day) on every other day after start of alcohol diet (FIG. 18A). We used 0.25% sodium carboxymethyl cellulose (CMC) as vehicle treatment. The mice were euthanized after 4 weeks and measured colon lengths (FIG. 18B-C), in vivo gut permeability (FITC-dextran assay), serum ALT, AST, endotoxin, IL-6 and TNF-α (FIG. 18E).

The subject of another test is C57BL/6 mice. Nature of the test: LPS-induced peritonitis mouse model. The format is in vivo. The note with it: 20 mg/kg; LPS 2 mg/kg i.p.; 4 h post LPS. As for the experimental part: FIG. 1: UAS03 is a potent anti-inflammatory structural analogue of UroA and induces tight junction proteins. (A) Chemical structures of UroA, UAS03. UroA/UAS03 stability was examined in the presence of gastric pH 2.0 and digestive enzymes. UroA and UAS03 (0.2 mg/ml) were incubated with digestive enzymes (esterases and proteases, 100 U/ml) for 12 h at 37° C. and compound levels were quantified. (B) BMDMs were stimulated with LPS (50 ng/ml) without or with UroA (blue line)/UAS03 (purple line) (0.1, 1, 10, 25 and 50 μM) for 6 hours. IL-6 and TNF-α levels in supernatants were measured. (C) C57BL/6 mice (n=3-4) were pretreated with UroA (20 mg/kg) and UAS03 (20 mg/kg). After 4 hours, LPS (2 mg/kg) was injected intraperitoneally. Post 4 h of LPS administration, serum levels of IL-6 and TNF-α was measured. […] (G) The fold changes in mRNA levels of claudin 4 (Cldn4), occludin (Ocln) and Zona occludens 1 (ZO1) in HT29 cells were determined by RT PCR method. (H) UroA/UAS03 induced protein expression of Cldn4, Ocln and ZO1 in HT29 cells were determined by immunoblots and quantified by Image J software. […] The green intensity (n=15-20 cell membrane regions) was measured. […] The protein lysates were prepared from colon scrapes and subjected to immunoblots and detected the expression of the (J) Nrf2, HO1, Cldn4 and (K) AhR using appropriate antibodies as described in methods. […]

SMILES strings stand for the structures.

In the case of `Oc1ccc2c(c1)COc1cc(O)ccc1-2` [UAS03, 6H-benzo[c]chromene-3,8-diol], in the test with C57BL/6N mice, the “deterioration of Ocln in the gut” value was “protected from deterioration of Ocln”; the “liver fat deposition (histopathology)” value is listed as “reduced liver fat deposition”; the “liver inflammation (IL-6, TNF-α, MPO) and TG levels” value is “down regulated liver inflammation and TG levels”. For the same compound, the “LPS-induced increase in serum IL-6 and TNF-α levels” value in the test with C57BL/6 mice was “reduced”.

For `O=c1oc2cc(O)ccc2c2ccc(O)cc12` [UroA, 3,8-dihydroxy-6H-dibenzo[b,d]pyran-6-one], the “LPS-induced increase in serum IL-6 and TNF-α levels” value in the test on C57BL/6 mice is given as “reduced”.
